Experimental data reported in US8815882B2, “Pyrazole aminopyrimidine derivatives as LRRK2 modulators” (Genentech, Inc., priority 2010, dated 2014).

The molecules below were run against T1, LRRK2 (Homo sapiens, UniProt Q5S007, G2019S) (assay: In Vitro LRRK2 Assay (LabChip 3000, fluorescently-labeled peptide substrate, ATP)). Details: Table 9; LRRK2 Ki (micromolar); read-out: LRRK2 Ki (KI).
T1 construct: purchased Invitrogen PV4882 (lot 567054A)
T1 sequence (Q5S007 whole entry G2019S): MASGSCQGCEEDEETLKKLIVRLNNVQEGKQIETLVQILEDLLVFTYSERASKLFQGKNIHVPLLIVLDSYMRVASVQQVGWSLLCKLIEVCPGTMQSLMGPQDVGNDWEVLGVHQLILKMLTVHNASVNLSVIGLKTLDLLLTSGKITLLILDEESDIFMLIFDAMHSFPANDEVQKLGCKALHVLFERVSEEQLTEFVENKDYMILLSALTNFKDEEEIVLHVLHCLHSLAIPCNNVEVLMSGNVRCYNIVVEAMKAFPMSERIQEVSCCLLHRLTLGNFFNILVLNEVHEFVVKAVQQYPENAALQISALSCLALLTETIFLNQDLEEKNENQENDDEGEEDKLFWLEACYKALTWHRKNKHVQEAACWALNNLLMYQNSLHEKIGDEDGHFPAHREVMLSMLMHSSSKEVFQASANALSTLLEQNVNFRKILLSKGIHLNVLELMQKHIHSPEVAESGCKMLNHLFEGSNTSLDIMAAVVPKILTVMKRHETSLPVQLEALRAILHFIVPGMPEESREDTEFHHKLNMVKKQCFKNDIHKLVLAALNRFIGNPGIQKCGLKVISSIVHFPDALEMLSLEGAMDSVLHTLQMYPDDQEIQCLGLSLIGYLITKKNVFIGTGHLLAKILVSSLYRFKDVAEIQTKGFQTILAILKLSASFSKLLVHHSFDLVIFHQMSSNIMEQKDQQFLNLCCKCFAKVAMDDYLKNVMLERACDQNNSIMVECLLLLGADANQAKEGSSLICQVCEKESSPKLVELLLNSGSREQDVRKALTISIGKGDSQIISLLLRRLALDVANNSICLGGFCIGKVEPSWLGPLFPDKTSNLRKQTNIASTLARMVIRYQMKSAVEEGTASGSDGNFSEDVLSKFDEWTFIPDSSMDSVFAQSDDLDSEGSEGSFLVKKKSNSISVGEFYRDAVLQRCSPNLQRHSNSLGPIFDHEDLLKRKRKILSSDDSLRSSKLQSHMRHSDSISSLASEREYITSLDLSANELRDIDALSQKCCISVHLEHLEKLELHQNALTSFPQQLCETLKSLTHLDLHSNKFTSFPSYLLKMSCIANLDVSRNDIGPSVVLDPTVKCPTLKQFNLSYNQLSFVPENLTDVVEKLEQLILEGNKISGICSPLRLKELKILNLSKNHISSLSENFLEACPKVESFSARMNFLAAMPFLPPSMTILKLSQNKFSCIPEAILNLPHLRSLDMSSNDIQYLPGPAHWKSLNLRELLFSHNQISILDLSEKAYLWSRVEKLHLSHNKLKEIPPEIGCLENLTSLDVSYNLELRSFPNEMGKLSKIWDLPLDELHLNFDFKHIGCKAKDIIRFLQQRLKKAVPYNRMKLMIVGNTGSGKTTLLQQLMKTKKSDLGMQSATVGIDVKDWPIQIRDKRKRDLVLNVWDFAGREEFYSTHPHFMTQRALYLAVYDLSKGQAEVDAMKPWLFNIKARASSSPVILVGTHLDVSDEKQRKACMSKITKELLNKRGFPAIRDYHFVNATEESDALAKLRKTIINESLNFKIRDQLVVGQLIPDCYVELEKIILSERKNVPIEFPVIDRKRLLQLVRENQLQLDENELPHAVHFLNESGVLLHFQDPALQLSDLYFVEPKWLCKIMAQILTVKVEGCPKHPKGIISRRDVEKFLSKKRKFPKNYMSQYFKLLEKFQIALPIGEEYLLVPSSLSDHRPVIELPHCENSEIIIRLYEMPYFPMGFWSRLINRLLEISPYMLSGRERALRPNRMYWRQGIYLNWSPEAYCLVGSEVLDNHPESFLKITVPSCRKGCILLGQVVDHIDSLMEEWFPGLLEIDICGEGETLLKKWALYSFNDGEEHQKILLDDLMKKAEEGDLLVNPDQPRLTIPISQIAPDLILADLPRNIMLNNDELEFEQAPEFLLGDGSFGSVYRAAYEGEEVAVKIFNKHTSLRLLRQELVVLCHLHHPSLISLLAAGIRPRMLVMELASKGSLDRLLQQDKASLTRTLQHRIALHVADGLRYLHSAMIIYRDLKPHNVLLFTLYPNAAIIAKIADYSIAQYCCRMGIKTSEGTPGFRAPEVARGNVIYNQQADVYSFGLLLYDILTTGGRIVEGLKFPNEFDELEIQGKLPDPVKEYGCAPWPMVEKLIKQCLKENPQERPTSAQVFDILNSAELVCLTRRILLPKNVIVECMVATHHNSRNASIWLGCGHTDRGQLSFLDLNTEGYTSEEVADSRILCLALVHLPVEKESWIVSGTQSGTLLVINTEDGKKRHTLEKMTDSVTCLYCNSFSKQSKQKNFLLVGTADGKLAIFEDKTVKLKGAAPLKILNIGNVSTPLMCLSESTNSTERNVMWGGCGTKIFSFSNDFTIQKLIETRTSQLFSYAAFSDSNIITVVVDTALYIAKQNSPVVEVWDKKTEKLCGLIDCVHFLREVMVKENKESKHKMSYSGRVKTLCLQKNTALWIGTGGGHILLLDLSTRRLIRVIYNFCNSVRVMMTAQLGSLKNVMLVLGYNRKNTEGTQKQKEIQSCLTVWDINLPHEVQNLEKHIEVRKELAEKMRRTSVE
Type: biochemical
How it was run: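 LRRK2, fluorescent peptide substrate (diluted to 4 μM before mixing), ATP and compound were incubated 2 h in the dark, then stopped. Phosphorylated and unphosphorylated peptide were separated by capillary electrophoresis and quantified by fluorescence. Ki was fitted with a tight-binding equation including enzyme concentration, S and Km; IC50 or percent inhibition were also reported.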
A Ki of 22.5 nM was found for `CNc1nc(Nc2cnn(C3CCN(CC(F)(F)F)CC3)c2C)ncc1C#N` [Example 356, 2-(5-methyl-1-(1-(2,2,2-trifluoroethyl)piperidin-4-yl)-1H-pyrazol-4-ylamino)-4-(methylamino) pyrimidine-5-carbonitrile] in this work.
A Ki of 82 nM was found for `CNc1nc(Nc2cn(-c3ccc(Cl)cc3)nc2C)ncc1C#N` [Example 368, 2-(1-(4-chlorophenyl)-3-methyl-1H-pyrazol-4-ylamino)-4-(methylamino) pyrimidine-5-carbonitrile] in this work.

Same assay, conditions: Table 10; LRRK2 Ki (micromolar); read-out: LRRK2 Ki (KI)
A Ki of 16 nM was found for `CNc1nc(Nc2cn([C@H](C)C(=O)N3CCCC3)nc2C)ncc1C(F)(F)F` [Example 403, (R)-2-(3-methyl-4-(4-(methylamino)-5-(trifluoromethyl)pyrimidin-2-ylamino)-1H-pyrazol-1-yl)-1-(pyrrolidin-l-yl)propan-1-one] in this work.
A Ki of 3.7 nM was found for `CNc1nc(Nc2cn(C3(C#N)CC3)nc2C)ncc1C(F)(F)F` [Example 402, 1-(3-methyl-4-(4-(methylamino)-5-(trifluoromethyl)pyrimidin-2-ylamino)-1H-pyrazol-1-yl)cyclopropane-carbonitrile] in this work.
A Ki of 30 nM was found for `CNc1nc(Nc2cnn([C@@H](C)C(=O)N(C)C)c2C)ncc1C(F)(F)F` [Example 414, (S)-N,N-dimethyl-2-(5-methyl-4-(4-(methylamino)-5-(trifluoromethyl)pyrimidin-2-ylamino)-1H-pyrazol-1-yl)propanamide] in this work.
A Ki of 404 nM was found for `CNc1nc(Nc2cnn(C(C)(C)C(=O)N3CCCC3)c2C)ncc1C(F)(F)F` [Example 400, 2-methyl-2-(5-methyl-4-(4-(methylamino)-5-(trifluoromethyl)pyrimidin-2-ylamino)-1H-pyrazol-1-yl)-1-(pyrrolidin-1-yl)propan-1-one] in this work.
A Ki of 1.9 nM was found for `CNc1nc(Nc2cnn(C(C)(C)C#N)c2Cl)ncc1C(F)(F)F` [Example 418, 2-(5-chloro-4-(4-(methylamino)-5-(trifluoromethyl)pyrimidin-2-ylamino)-1H-pyrazol-1-yl)-2-methylpropanenitrile] in this work.
A Ki of 66.6 nM was found for `CNc1nc(Nc2cnn(C(C)(C)C(=O)NCC(F)(F)F)c2C)ncc1C(F)(F)F` [Example 443, 2-[5-Methyl-4-(4-methylamino-5-trifluoromethyl-pyrimidin-2-ylamino)-pyrazol-1-yl]-N-(2,2,2-trifluoro-ethyl)-isobutyramide] in this work.
A Ki of 73 nM was found for `CNc1nc(Nc2cn(C(C)(C)C(=O)NC(C)(C)C)nc2C)ncc1C(F)(F)F` [Example 423, N-tert-butyl-2-methyl-2-(3-methyl-4-(4-(methylamino)-5-(trifluoromethyl)pyrimidin-2-ylamino)-1H-pyrazol-1-yl)propanamide] in this work.
A Ki of 9.2 nM was found for `CCNc1nc(Nc2cn(C(C)(C)C(=O)NC)nc2C)ncc1C(F)(F)F` [Example 453, 2-[4-(4-Ethylamino-5-trifluoromethyl-pyrimidin-2-ylamino)-3-methyl-pyrazol-1-yl]-N-methyl-isobutyramide] in this work.
A Ki of 4 nM was found for `CNc1nc(Nc2cn(CC(=O)N(C)C)nc2C)ncc1C(F)(F)F` [Example 396, N,N-dimethyl-2-(3-methyl-4-(4-(methylamino)-5-(trifluoromethyl)pyrimidin-2-ylamino)-1H-pyrazol-1-yl)acetamide] in this work.

Same assay, conditions: read-out: LRRK2 Ki (KI), Table 7
A Ki of 96 nM was found for `CNc1nc(Nc2c(C)nn(C)c2C)ncc1C(F)(F)F` [Example 10, N^4-methyl-5-(trifluoromethyl)-N^2-(1,3,5-trimethyl-1H-pyrazol-4-yl)pyrimidinc-2,4-diamine] in this work.
A Ki of 7.8 nM was found for `COc1nc(Nc2cn(S(C)(=O)=O)nc2C)ncc1Cl` [Example 54, 5-chloro-4-methoxy-N-(3-methyl-1-(methylsulfonyl)-1H-pyrazol-4-yl)pyrimidin-2-amine] in this work.
A Ki of 55 nM was found for `COc1nc(Nc2cn(-c3ccncc3C)nc2C)ncc1Cl` [Example 69, 5-chloro-4-methoxy-N-(3-methyl-1-(3-methylpyridin-4-yl)-1H-pyrazol-4-yl)pyrimidin-2-amine] in this work.
A Ki of 112 nM was found for `CNc1nc(Nc2ccnn2C(C)C)ncc1C(F)(F)F` [Example 47, N^2-(1-isopropyl-1H-pyrazol-5-yl)-N^4-methyl-5-(trifluoromethyl) pyrimidine-2,4-diamine] in this work.
A Ki of 15 nM was found for `COc1nc(Nc2cnn(S(=O)(=O)C3CC3)c2C)ncc1Cl` [Example 70, 5-chloro-N-(1-(cyclopropyl-sulfonyl)-5-methyl-1H-pyrazol-4-yl)-4-methoxy-pyrimidin-2-amine] in this work.
A Ki of 16 nM was found for `COc1nc(Nc2cnn(C(C)(C)C#N)c2C)ncc1Cl` [Example 72, 2-(4-(5-chloro-4-methoxy-pyrimidin-2-ylamino)-5-methyl-1H-pyrazol-1-yl)-2-methylpropane-nitrile] in this work.
A Ki of 33 nM was found for `CC(C)n1cc(Nc2ncc(Cl)c(OC3CCOCC3)n2)cn1` [Example 11, 5-Chloro-N-(1-isopropyl-1H-pyrazol-4-yl)-4-(tetrahydro-2H-pyran-4-yloxy)pyrimidin-2-amine] in this work.

Same assay, conditions: read-out: LRRK2 Ki (KI), Table 8
A Ki of 3.3 nM was found for `CNc1nc(Nc2cnn([C@@H]3CCN(C4COC4)C3)c2C)ncc1C(F)(F)F` [Example 211, (R)-N4-methyl-N2-(5-methyl-1-(1-(oxetan-3-yl)pyrrolidin-3-yl)-1H-pyrazol-4-yl)-5-(trifluoromethyl) pyrimidine-2,4-diamine] in this work.
A Ki of 1.3 nM was found for `CCNc1nc(Nc2cn(C(C)(C)C(=O)NC)nc2C)ncc1C(F)(F)F` [Example 303, 2-[4-(4-Ethylamino-5-trifluoromethyl-pyrimidin-2-ylamino)-3-methyl-pyrazol-1-yl]-N-methyl-isobutyramide] in this work.
A Ki of 6.8 nM was found for `CNc1nc(Nc2cn(C3CCOC3)nc2C)ncc1C(F)(F)F` (stereo not shown) [Example 149, N4-methyl-N2-(3-methyl-1-(tetrahydrofuran-3-yl)-1H-pyrazol-4-yl)-5-(trifluoromethyl) pyrimidine-2,4-diamine] in this work.
A Ki of 11.8 nM was found for `CNc1nc(Nc2cn(C[C@H](C)OC)nc2C)ncc1C(F)(F)F` [Example 189, (S)-N2-(1-(2-methoxypropyl)-3-methyl-1H-pyrazol-4-yl)-N4-methyl-5-(trifluoromethyl) pyrimidine-2,4-diamine] in this work.
A Ki of 1.4 nM was found for `CCNc1nc(Nc2cn(C3COC3)nc2C)ncc1Br` [Example 104, 5-bromo-N4-ethyl-N2-(3-methyl-1-(oxetan-3-yl)-1H-pyrazol-4-yl)pyrimidine-2,4-diamine] in this work.
A Ki of 12 nM was found for `CCCn1cc(Nc2ncc(Br)c(NC)n2)c(C)n1` [Example 113, 5-bromo-N4-methyl-N2-(3-methyl-1-propyl-1H-pyrazol-4-yl)pyrimidine-2,4-diamine] in this work.
A Ki of 1.2 nM was found for `CNc1nc(Nc2cn(CC(F)(F)F)nc2C)ncc1Br` [Example 95, 5-bromo-N4-methyl-N2-(3-methyl-1-(2,2,2-trifluoroethyl)-1H-pyrazol-4-yl)pyrimidine-2,4-diamine] in this work.
A Ki of 1.5 nM was found for `CCNc1nc(Nc2cnn(C)c2C)ncc1Br` [Example 257, 5-Bromo-N2-(1,5-dimethyl-1H-pyrazol-4-yl)-N4-ethyl-pyrimidine-2,4-diamine] in this work.
A Ki of 16 nM was found for `CNc1nc(Nc2cn(C3CCN(CCOC)CC3)nc2C)ncc1C(F)(F)F` [Example 238, N2-(1-(1-(2-methoxyethyl)piperidin-4-yl)-3-methyl-1H-pyrazol-4-yl)-N4-methyl-5-(trifluoromethyl) pyrimidine-2,4-diamine] in this work.
A Ki of 3.6 nM was found for `CCNc1nc(Nc2cnn(C)c2C2CCC2)ncc1C(F)(F)F` [Example 280, N2-(5-Cyclobutyl-1-methyl-1H-pyrazol-4-yl)-N4-ethyl-5-trifluoromethyl-pyrimidine-2,4-diamine] in this work.
A Ki of 50.6 nM was found for `CCNc1nc(Nc2cn(C(C)(C)CN3CCOCC3)nc2C)ncc1C(F)(F)F` [Example 298, N2-[1-(1,1-Dimethyl-2-morpholin-4-yl-ethyl)-3-methyl-1H-pyrazol-4-yl]-N4-ethyl-5-trifluoromethyl-pyrimidine-2,4-diamine] in this work.
A Ki of 0.7 nM was found for `CNc1nc(Nc2cnn(C(F)F)c2C)ncc1Br` [Example 255, 5-Bromo-N2-(1-difluoromethyl-5-methyl-1H-pyrazol-4-yl)-N4-methyl-pyrimidine-2,4-diamine] in this work.
A Ki of 2.2 nM was found for `CNc1nc(Nc2cnn(C3CCC(=O)NC3)c2C)ncc1C(F)(F)F` (stereo not shown) [Example 154, 5-(5-methyl-4-(4-(methylamino)-5-(trifluoromethyl)pyrimidin-2-ylamino)-1H-pyrazol-1-yl)piperidin-2-one] in this work.
A Ki of 6.1 nM was found for `CCNc1nc(Nc2cn(CC(C)(C)O)nc2C(C)C)ncc1C(F)(F)F` [Example 221, 1-(4-(4-(ethylamino)-5-(trifluoromethyl)pyrimidin-2-ylamino)-3-isopropyl-1H-pyrazol-l-yl)-2-methylpropan-2-ol] in this work.
A Ki of 7.2 nM was found for `CCS(=O)(=O)n1ncc(Nc2ncc(C(F)(F)F)c(NC)n2)c1C` [Example 287, N2-(1-Ethanesulfonyl-5-methyl-1H-pyrazol-4-yl)-N4-methyl-5-trifluoromethyl-pyrimidine-2,4-diamine] in this work.
A Ki of 1.7 nM was found for `CNc1nc(Nc2cnn(CC(C)(C)C#N)c2Cl)ncc1C(F)(F)F` [Example 313, 3-[5-Chloro-4-(4-methylamino-5-trifluoromethyl-pyrimidin-2-ylamino)-pyrazol-1-yl]-2,2-dimethyl-propionitrile] in this work.
A Ki of 2.6 nM was found for `CNc1nc(Nc2cnn(Cc3cnccn3)c2C)ncc1C(F)(F)F` [Example 316, N4-Methyl-N2-(5-methyl-1-pyrazin-2-ylmethyl-1H-pyrazol-4-yl)-5-trifluoromethyl-pyrimidine-2,4-diamine] in this work.
A Ki of 1.2 nM was found for `CCNc1nc(Nc2cnn([C@H]3CCCN(C)C3)c2C)ncc1C(F)(F)F` [Example 311, N4-Ethyl-N2-[5-methyl-1-((S)-1-methyl-piperidin-3-yl)-1H-pyrazol-4-yl]-5-trifluoromethyl-pyrimidine-2,4-diamine] in this work.
A Ki of 9.7 nM was found for `CNc1nc(Nc2cn(C3CCC(=O)NC3)nc2C)ncc1C(F)(F)F` (stereo not shown) [Example 153, 5-(3-methyl-4-(4-(methylamino)-5-(trifluoromethyl)pyrimidin-2-ylamino)-1H-pyrazol-1-yl)piperidin-2-one] in this work.
